Results on two molecules are retold here after patent US20230002449A1, “DERIVED PEPTIDE OF LACTOFERRIN AND METHOD THEREOF FOR PROMOTING AND/OR INCREASING LIPID SYNTHESIS” (RENORIGIN INNOVATION INSTITUTE CO., LTD., priority 2021, published 2023).

The test deals with Human sebocytes. Briefly: Neutral fat detection (Nile red staining, fluorescence intensity) in human sebocytes. The format is cell-based. As to the method:
Human sebocytes (Cat. No. 36079-01, Celprogen, Torrance, Calif., USA) were cultured in Dulbecco's Modified Eagle Medium (DMEM): Nutrient Mixture F-12 (DMEM/F12) purchased from Thermo Fisher Scientific Limited (Barrington, Ill., USA), 10% fetal bovine serum (FBS) purchased from Gibco, Grand Island, N.Y., USA and penicillin/streptomycin (100 IU/50 […]), incubated at 37° C. in the 5% CO2 atmosphere.
Human sebocytes were implanted in 24- or 96-well plates. After 24 hours of culture, the cells were divided into a negative control group, a positive control group and an experimental group. […] The treated human sebocytes were cultured for two days. Human sebocytes were fixed with 4% formaldehyde at room temperature. After 60 minutes of fixation, the cells were washed with PBS and stain with Nile Red solution (1 μg/ml in PBS) at 37° C. for 15 minutes. Next, the cells were washed and observed under a fluorescent microscope. Fluorescence intensity was measured with fluorometer Spectra Max i3.

The mark [1] stands for this setting: 0.1 mM LA + 50 μg/mL peptide vs LA alone, FIG. 1E.

For `CCCCC/C=C\C/C=C\CCCCCCCC(=O)O` [LA, linoleic acid, reference compound], for the setting “0.1 mM LA alone vs negative control, FIG. 1E”, the “lipid content compared with the negative control group” value is listed as “more than 3 times”. Moreover, the “fluorescence intensity (lipid content of sebocytes, Nile red)” value (0.1 mM linoleic acid (LA) alone, positive control group, negative control about 1, FIG. 1E, cultured two days) is “about 3.44”.

With “Lf13: Lactoferrin-derived peptide purchased from DgPeptides; presumably the derived peptide comprising the amino acid sequence of SEQ ID NO: 01 (APRKNVRWCTISQ; Lactoferrin derived peptide)”, the “fluorescence intensity (lipid content of sebocytes, Nile red)” value is given as “about 1.29” (50 μg/mL peptide, negative control about 1.0, FIG. 2E); “about 1.44” (100 μg/mL peptide, negative control about 1.0, FIG. 2E); “about 4.67” (0.1 mM LA + 50 μg/mL lactoferrin peptide, negative control about 1, positive control (LA) about 3.44, FIG. 1E); “about 1.54” (400 μg/mL peptide (so in the source), negative control about 1.0, FIG. 2E). Further, the “lipid content increase compared with the positive control group (LA)” value under setting [1] turned out to be 40%. In addition, under setting [1], the “promoting and/or increasing the content of lipid synthesized by the induction of LA (significance vs positive control)” value was “significant difference”. Besides, under “50, 100, 200 μg/mL peptide, FIG. 2”, the “concentration dependence of the lipid content increase” value was “dose-dependent manner”.
